Measured values: paper PMC6934184, “Selective DNA-PKcs inhibition extends the therapeutic index of localized radiotherapy and chemotherapy” (The Journal of Clinical Investigation, 2019)

Target: T1, MAPK13 (p38 delta) (Homo sapiens, UniProt O15264)
T1 construct: purchased Thermo Fisher Scientific (Life Technologies) SelectScreen
Test: SelectScreen Z'LYTE
Assay type: biochemical
Experimental: The in vitro kinase selectivity of NU5455 was determined using the SelectScreen Broad Assay Panel (Thermo Fisher Scientific) involving activity and binding assays (Supplemental Table 1). […] Class IA PI3Ks were measured using the p85α subunit.
Kinase [ATP] % Assay Kinase [ATP] % Assay Kinase [ATP] % Assay Kinase [ATP] % Assay
DNA-PK Km app 98.3 Z LATS2 n/a 4.7 L KIT D820E n/a 1.3 L GSK3B (GSK3 beta) Km app -2.5 Z
PIK3C3 (hVPS34) Km app 85.9 A PRKCZ (PKC zeta) Km app 4.7 Z GRK1 n/a 1.3 L BMPR2 n/a -2.5 L
PIK3C2B (PI3K-C2 beta) 10 28.9 A FGFR1 Km app 4.7 Z BRSK2 n/a 1.2 L CDC42 BPB (MRCKB) Km app -2.5 Z
SNF1LK2 Km app 26.6 Z MINK1 Km app 4.6 Z NUAK1 (ARK5) Km app 1.2 A AMPK (A2/B2/G2) n/a -2.6 L
HCK Km app 18.0 Z CSF1R (FMS) Km app 4.3 Z CDK9/cyclin K n/a 1.0 L PRKG1 Km app -2.7 Z
NEK2 Km app 17.8 Z CSNK1G3 (CK1 gamma 3) Km app 4.2 Z NUAK2 n/a 1.0 L KIT T670E n/a -2.8 L
ALK Km app 17.3 Z STK32C (YANK3) n/a 4.2 L CDK2/cyclin O n/a 0.9 L ERBB4 (HER4) Km app -2.8 Z
FGFR3 K650M n/a 16.5 L STK22D (TSSK1) Km app 4.2 Z CAMKK2 (CaMKK beta) n/a 0.9 L PLK4 n/a -2.8 L
SIK3 n/a 16.1 L TAOK3 (JIK) n/a 4.2 L FGFR3 Km app 0.9 Z GRK7 Km app -3.0 Z
LYN A Km app 15.2 Z RPS6KA4 (MSK2) Km app 4.2 Z ULK2 n/a 0.9 L MAPKAPK2 Km app -3.1 Z
BMPR1B (ALK6) n/a 14.5 L PTK2B (FAK2) Km app 4.2 Z KIT D816V n/a 0.9 L FGFR4 Km app -3.1 Z
INSRR (IRR) Km app 14.1 Z CLK2 Km app 4.1 Z CAMK1 (CaMK1) 10 0.8 A CASK n/a -3.1 L
PLK2 Km app 14.1 Z STK24 (MST3) Km app 4.1 Z PTK6 (Brk) Km app 0.7 Z GRK5 Km app -3.2 Z
PRKACA (PKA) Km app 14.0 Z CAMK1D (CaMKI delta) Km app 4.1 Z CAMK2B (CaMKII beta) Km app 0.7 Z EGFR (ErbB1) T790M Km app -3.3 Z
EIF2AK2 (PKR) n/a 13.3 L INSR Km app 4.1 Z ACVR1 (ALK2) n/a 0.7 L PAK4 Km app -3.3 Z
PRKX Km app 12.5 Z IRAK1 Km app 4.0 A ABL1 H396P n/a 0.6 L DAPK3 (ZIPK) Km app -3.4 Z
FGR Km app 12.1 Z SRC N1 Km app 3.9 Z MERTK (cMER) A708S n/a 0.6 L RET M918T n/a -3.5 L
CLK1 Km app 11.7 Z SRPK2 Km app 3.9 Z MAPKAPK5 (PRAK) Km app 0.6 Z PRKCQ (PKC theta) Km app -3.7 Z
MARK3 Km app 11.4 Z RPS6KA6 (RSK4) Km app 3.8 Z AKT1 (PKB alpha) Km app 0.5 Z CAMKK1 (CAMKKA) n/a -3.8 L
PDGFRB (PDGFR beta) Km app 11.0 Z GRK6 Km app 3.7 Z NTRK3 (TRKC) Km app 0.4 Z FLT3 D835Y Km app -3.9 Z
PRKCN (PKD3) Km app 10.7 Z PKN1 (PRK1) Km app 3.6 Z ZAP70 Km app 0.3 Z ROCK2 Km app -4.1 Z
STK16 (PKL12) n/a 10.5 L MAP3K8 (COT) 100 3.5 Z CSNK1A1 (CK1 alpha 1) Km app 0.3 Z CHUK (IKK alpha) Km app -4.2 A
FES (FPS) Km app 10.4 Z FLT4 (VEGFR3) Km app 3.5 Z MYLK (MLCK) n/a 0.2 L AXL Km app -4.2 Z
ABL1 Km app 10.4 Z GRK4 Km app 3.5 Z MKNK2 (MNK2) n/a 0.2 L PIM2 Km app -4.3 Z
MUSK Km app 10.3 Z FRK (PTK5) Km app 3.4 Z AMPK (A1/B1/G3) n/a 0.2 L PAK1 Km app -4.4 Z
MAPK1 (ERK2) Km app 10.1 Z FYN A n/a 3.3 L MAP3K2 (MEKK2) n/a 0.1 L BMPR1A (ALK3) n/a -4.4 L
BRAF 100 9.9 Z CDK1/cyclin A2 n/a 3.3 L CDK8/cyclin C n/a 0.1 L STK4 (MST1) Km app -4.4 Z
IGF1R Km app 9.7 Z KIT V559D T670I n/a 3.1 L MARK2 Km app 0.1 Z PRKCH (PKC eta) Km app -4.6 Z
MAPK14 (p38 alpha) Km app 9.7 Z SPHK2 10 3.1 A ICK n/a 0.0 L SGKL (SGK3) Km app -4.6 Z
LCK Km app 9.6 Z FGFR3 G697C n/a 3.1 L FGFR2 Km app 0.0 Z PI4KB (PI4K beta) Km app -4.7 A
MAPK11 (p38 beta) Km app 9.5 Z RIPK2 n/a 3.1 L AKT2 (PKB beta) Km app 0.0 Z PRKCE (PKC epsilon) Km app -4.9 Z
SRC Km app 9.5 Z PAK6 Km app 3.0 Z EPHB2 Km app -0.1 Z PHKG1 Km app -5.0 Z
CHEK1 (CHK1) Km app 9.3 Z LYN B Km app 3.0 Z TGFBR2 n/a -0.1 L PDGFRA D842V Km app -5.0 Z
CAMK2D (CaMKII delta) Km app 9.3 Z DAPK2 n/a 2.9 L TEK (Tie2) Km app -0.1 Z PRKG2 (PKG2) Km app -5.1 Z
PLK1 Km app 9.2 Z EPHA4 Km app 2.9 Z AURKA (Aurora A) Km app -0.1 Z TYRO3 (RSE) Km app -5.1 Z
RET Y791F Km app 9.2 Z PIK3CG (p110 gamma) Km app 2.9 A KIT D816H n/a -0.2 L TAOK2 (TAO1) Km app -5.1 Z
FLT3 Km app 9.1 Z HIPK1 (Myak) Km app 2.8 Z KIT N822K n/a -0.2 L EPHB4 Km app -5.3 Z
MAPK10 (JNK3) 100 9.0 Z ADRBK2 (GRK3) Km app 2.8 Z PRKACG (PRKAC gamma) n/a -0.2 L AURKC (Aurora C) Km app -5.4 Z
CSNK2A2 (CK2 alpha 2) Km app 8.7 Z STK17B (DRAK2) n/a 2.7 L TEK (TIE2) Y1108F n/a -0.3 L JAK1 Km app -5.7 Z […]

T1 sequence (O15264 whole entry): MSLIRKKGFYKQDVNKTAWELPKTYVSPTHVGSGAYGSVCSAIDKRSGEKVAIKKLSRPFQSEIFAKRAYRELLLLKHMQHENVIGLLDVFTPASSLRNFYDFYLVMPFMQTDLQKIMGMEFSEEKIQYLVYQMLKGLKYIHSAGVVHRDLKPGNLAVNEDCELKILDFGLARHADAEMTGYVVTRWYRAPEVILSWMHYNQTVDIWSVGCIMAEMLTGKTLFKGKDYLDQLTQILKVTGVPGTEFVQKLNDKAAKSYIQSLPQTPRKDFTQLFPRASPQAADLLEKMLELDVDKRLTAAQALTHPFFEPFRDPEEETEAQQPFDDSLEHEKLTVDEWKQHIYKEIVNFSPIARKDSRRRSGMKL

`CN(C(=O)CN1CCOCC1)c1ccc2sc3c(-c4cccc5c(=O)cc(N6CC7CCC(C6)O7)oc45)cccc3c2c1` [NU5455] was tested, and the inhibition at 1 µM was 5.8%.
